Earlier results in US20150086616A1, “METHOD FOR THE PREVENTION AND TREATMENT OF ALZHEIMER'S DISEASE” (priority 2013, published 2015).

What was measured:
[1] = highly lipophilic drugs
Alzheimer's disease = conditions: for efficacy of oral NSAID as treatment of Alzheimer's disease: oral administration
[2] = after multiple oral doses of ibuprofen
[3] = ophthalmic

| SMILES | crossing of the blood brain barrier [1] | efficacy of oral NSAID as treatment of Alzheimer's disease (Alzheimer's disease) | direct cyclooxygenase inhibition (cyclooxygenase) | other results |
| --- | --- | --- | --- | --- |
| CC(C(=O)O)c1ccc(-c2ccccc2)c(F)c1 (stereo not drawn) [flurbiprofen] | readily cross the blood brain barrier | not an effective treatment |  |  |
| CC(C)Cc1ccc(C(C)C(=O)O)cc1 (stereo not drawn) [ibuprofen] | readily cross the blood brain barrier | not an effective treatment |  | brain concentration [2]: 0.4 µg/g; concentration in fat [2]: 58.4 μg/g tissue |
| C[C@@H](C(=O)O)c1ccc(-c2ccccc2)c(F)c1 [R-flurbiprofen] |  |  | devoid of any direct cyclooxygenase inhibition | phase III clinical trial for the treatment of Alzheimer's disease (Alzheimer's disease; phase III clinical trial): failed |
| O=C(O)Cc1ccccc1Nc1c(Cl)cccc1Cl [diclofenac] | readily cross the blood brain barrier |  |  | anti-inflammatory action compared with flurbiprofen [3]: more anti-inflammatory action; burning sensation compared with flurbiprofen [3]: less burning sensation |
| C[C@H](C(=O)O)c1ccc(-c2ccccc2)c(F)c1 (single isomer, unassigned) [S-enantiomer of flurbiprofen] |  |  | is a cyclooxygenase inhibitor |  |
